Patent US20250049035A1, “MICROBIOCIDAL BICYCLE HETEROCYCLIC DERIVATIVES” (SYNGENTA CROP PROTECTION AG, priority 2021, published 2025)

Experiments:
Pyrenophora teres = Pyrenophora teres / barley / leaf disc preventative (net blotch); type: in vivo; details: foliar, barley leaf segments cv. Hasso, inoculated 2 days after application, assessed 5-7 days after application, compared to untreated control
Protocol: Example B12: Pyrenophora teres/Barley/Leaf Disc Preventative (Net Blotch) Barley leaf segments cv. Hasso are placed on agar in a multiwell plate (24-well format) and sprayed with the formulated test compound diluted in water. The leaf segments are inoculated with a spore suspension of the fungus 2 days after application. The inoculated leaf segments are incubated at 20° C. and 65% relative humidity under a light regime of 12 h light/12 h darkness in a climate cabinet and the activity of a compound is assessed as disease control compared to untreated when an appropriate level of disease damage appears in untreated check leaf segments (5-7 days after application).

Alternaria solani = Alternaria solani / tomato / leaf disc (early blight); type: in vivo; details: foliar, tomato leaf disks cv. Baby, inoculated 2 days after application, assessed 5-7 days after application, compared to untreated control
Protocol: Example B1: Alternaria solani/Tomato/Leaf Disc (Early Blight) Tomato leaf disks cv. Baby are placed on agar in multiwell plates (24-well format) and sprayed with the formulated test compound diluted in water. The leaf disks are inoculated with a spore suspension of the fungus 2 days after application. The inoculated leaf disks are incubated at 23° C./21° C.

Sclerotinia sclerotiorum = Sclerotinia sclerotiorum / liquid culture (cottony rot); type: cell-based; details: liquid culture (potato dextrose broth), growth inhibition photometrically 3-4 days after application, compared to untreated control
Protocol: Example B14: Sclerotinia sclerotiorum/Liquid Culture (Cottony Rot) Mycelia fragments of a newly grown liquid culture of the fungus are directly mixed into a nutrient broth (potato dextrose broth). After placing a DMSO solution of test compound into a microtiter plate (96-well format) the nutrient broth containing the fungal material is added. The test plates are incubated at 24° C. and the inhibition of growth is determined photometrically 3-4 days after application.

[1] = system: Glomerella lagenarium (Colletotrichum lagenarium); assay: Glomerella lagenarium (Colletotrichum lagenarium) / liquid culture (anthracnose); type: cell-based; details: Colletotrichum orbiculare, liquid culture (potato dextrose broth), growth inhibition photometrically 3-4 days after application, compared to untreated control
In short: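 Cryostored conidia in potato dextrose broth were added to wells holding compound in DMSO and incubated at 24° C. Growth inhibition read photometrically 3-4 days after application.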

[2] = system: Monographella nivalis (Microdochium nivale); assay: Monographella nivalis (Microdochium nivale) / liquid culture (foot rot cereals); type: cell-based; details: liquid culture (potato dextrose broth), growth inhibition photometrically 4-5 days after application, compared to untreated control
In short: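 Cryostored conidia suspended in potato dextrose broth and added to compound dispensed from DMSO solution. Growth at 24 °C; inhibition read photometrically 4–5 days after application.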

Fusarium culmorum = assay: microbe, parasite or virus in culture; type: cell-based; details: read-out: control of Fusarium culmorum
[3] = system: Blumeria graminis f. sp. tritici (Erysiphe graminis f. sp. tritici); assay: Blumeria graminis f. sp. tritici / wheat / leaf disc preventative (powdery mildew); type: in vivo; details: foliar, wheat leaf segments cv. Kanzler, inoculated 1 day after application, assessed 6-8 days after application, compared to untreated control
Protocol: Example B4: Blumeria graminis f. sp. tritici (Erysiphe graminis f. sp. tritici)/Wheat/Leaf Disc Preventative (Powdery Mildew on Wheat) Wheat leaf segments cv. Kanzler are placed on agar in a multiwell plate (24-well format) and sprayed with the formulated test compound diluted in water. The leaf disks are inoculated by shaking powdery mildew infected plants above the test plates 1 day after application. The inoculated leaf disks are incubated at 20° C. and 60% relative humidity under a light regime of 24 h darkness followed by 12 h light/12 h darkness in a climate chamber and the activity of a compound is assessed as percent disease control compared to untreated when an appropriate level of disease damage appears on untreated check leaf segments (6-8 days after application).

[4] = system: Phaeosphaeria nodorum (Septoria nodorum); assay: Phaeosphaeria nodorum (Septoria nodorum) / wheat / leaf disc preventative (glume blotch); type: in vivo; details: Parastagonospora nodorum, foliar, wheat leaf segments cv. Kanzler, inoculated 2 days after application, assessed 5-7 days after application, compared to untreated control
In short: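 Wheat leaf segments (cv. Kanzler) on agar were sprayed with diluted formulated compound and inoculated with fungal spores 2 days later. Incubation was at 20 °C, 75% relative humidity and 12 h light/dark. Percent disease control versus untreated leaf disks was scored 5-7 days after application.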

[5] = system: Mycosphaerella graminicola (Septoria tritici); assay: Mycosphaerella graminicola (Septoria tritici) / liquid culture (Septoria blotch); type: cell-based; details: Zymoseptoria tritici, liquid culture (potato dextrose broth), growth inhibition photometrically 4-5 days after application, compared to untreated control
In short: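 Cryostored conidia in potato dextrose broth added to compound in DMSO, incubated at 24 °C. Growth inhibition read photometrically 4–5 days after application.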

[6] = system: Mycosphaerella arachidis (Cercospora arachidicola); assay: Mycosphaerella arachidis (Cercospora arachidicola) / liquid culture (early leaf spot); type: cell-based; details: liquid culture (potato dextrose broth), growth inhibition photometrically 4-5 days after application, compared to untreated control
In short: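 Cryostored conidia mixed into potato dextrose broth and added to compound dispensed in DMSO. Plates held at 24 °C; growth inhibition assessed photometrically 4–5 days after application.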

[7] = system: Botryotinia fuckeliana (Botrytis cinerea); assay: Botryotinia fuckeliana (Botrytis cinerea) / liquid culture (gray mould); type: cell-based; details: liquid culture (Vogels broth), growth inhibition photometrically 3-4 days after application, compared to untreated control
In short: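 Conidia from cryogenic storage, suspended in Vogels nutrient broth, added to compound applied as a DMSO solution. Incubation at 24 °C; growth inhibition read photometrically 3–4 days after application.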

[8] = system: Thanatephorus cucumeris (Rhizoctonia solani); assay: Thanatephorus cucumeris (Rhizoctonia solani) / liquid culture (foot rot, damping-off); type: cell-based; details: 20 ppm; liquid culture (potato dextrose broth), growth inhibition photometrically 3-4 days after application; compared to untreated control
Protocol: Example B13: Thanatephorus cucumeris (Rhizoctonia solani)/Liquid Culture (Foot Rot, Damping-Off) Mycelia fragments of a newly grown liquid culture of the fungus are directly mixed into a nutrient broth (potato dextrose broth). After placing a DMSO solution of the test compounds into a microtiter plate (96-well format), the nutrient broth containing the fungal material is added. The test plates are incubated at 24° C. and the inhibition of growth is determined photometrically 3-4 days after application.

SMILES | pest or weed control at 200 ppm (Pyrenophora teres) | pest or weed control at 200 ppm (Alternaria solani) | inhibition of growth at 20 ppm (Sclerotinia sclerotiorum) | inhibition of growth at 20 ppm [1] | inhibition of growth at 20 ppm [2] | inhibition of growth at 20 ppm (Fusarium culmorum) | pest or weed control at 200 ppm [3] | pest or weed control at 200 ppm [4] | inhibition of growth at 20 ppm [5] | inhibition of growth at 20 ppm [6] | inhibition of growth at 20 ppm [7] | control of Thanatephorus cucumeris [8]
Cc1c(C2CN(C(=O)c3cc(-c4ccc(F)cc4F)on3)Cc3sccc32)cnn1C (stereo not shown) [Compound P-32, [5-(2,4-difluorophenyl)isoxazol-3-yl]-[4-(1,5-dimethylpyrazol-4-yl)-5,7-dihydro-4H-thieno[2,3-c]pyridin-6-yl]methanone] | ≥ 80% | ≥ 80% | ≥ 80% | ≥ 80% | ≥ 80% | ≥ 80% | ≥ 80% | ≥ 80% | ≥ 80% | ≥ 80% | ≥ 80% | –
Cc1c(C2CN(C(=O)c3cc(-c4ccc(F)cc4F)on3)Cc3ccsc32)cnn1C (stereo not shown) [Compound P-33, [5-(2,4-difluorophenyl)isoxazol-3-yl]-[7-(1,5-dimethylpyrazol-4-yl)-6,7-dihydro-4H-thieno[3,2-c]pyridin-5-yl]methanone] | ≥ 80% | ≥ 80% | ≥ 80% | ≥ 80% | ≥ 80% | ≥ 80% | ≥ 80% | ≥ 80% | ≥ 80% | ≥ 80% | ≥ 80% | –
C[C@@H]1c2ccsc2[C@@](C)(c2cnn(C)c2)CN1C(=O)c1nnc(-c2ccc(F)cc2F)s1 (racemic) [Compound P-9, [5-(2,4-difluorophenyl)-1,3,4-thiadiazol-2-yl]-[rac-(4S,7R)-4,7-dimethyl-7-(1-methylpyrazol-4-yl)-4,6-dihydrothieno[3,2-c]pyridin-5-yl]methanone] | – | – | – | – | ≥ 80% | – | – | – | ≥ 80% | ≥ 80% | – | at least 80%
C[C@H]1c2sccc2[C@@H](c2cnn(C)c2)CN1C(=O)c1nnc(-c2ccc(F)cc2F)s1 [Compound P-2, [5-(2,4-difluorophenyl)-1,3,4-thiadiazol-2-yl]-[(4R,7S)-7-methyl-4-(1-methylpyrazol-4-yl)-5,7-dihydro-4H-thieno[2,3-c]pyridin-6-yl]methanone] | ≥ 80% | ≥ 80% | ≥ 80% | ≥ 80% | ≥ 80% | ≥ 80% | ≥ 80% | ≥ 80% | ≥ 80% | ≥ 80% | ≥ 80% | –
C[C@H]1c2sccc2[C@@](C)(c2cnn(C)c2)CN1C(=O)c1nnc(-c2ccc(F)cc2F)s1 [Compound P-6, [5-(2,4-difluorophenyl)-1,3,4-thiadiazol-2-yl]-[(4R,7S)-4,7-dimethyl-4-(1-methylpyrazol-4-yl)-5,7-dihydrothieno[2,3-c]pyridin-6-yl]methanone] | ≥ 80% | ≥ 80% | ≥ 80% | ≥ 80% | ≥ 80% | ≥ 80% | ≥ 80% | ≥ 80% | ≥ 80% | ≥ 80% | ≥ 80% | –
Cn1cc(C2(C)CN(C(=O)c3nnc(-c4ccc(F)cc4F)s3)Cc3sccc32)cn1 (stereo not shown) [Compound P-18, methylpyrazol-4-yl)-5,7-[5-(2,4-difluorophenyl)-1,3,4-thiadiazol-2-yl]-[4-methyl-4-(1-dihydrothieno[2,3-c]pyridin-6-yl]methanone] | ≥ 80% | ≥ 80% | ≥ 80% | ≥ 80% | – | ≥ 80% | ≥ 80% | ≥ 80% | ≥ 80% | ≥ 80% | ≥ 80% | –
